Key:
Ctenocephalides felis = assay: In vitro ingestion activity against fleas (artificial feeding, bovine blood); details: for mortality at 0.003 ppm: Trial 3, dose 0.003 ppm; for mortality at 0.012 ppm: Trial 3, dose 0.012 ppm; for mortality at 0.049 ppm: Trial 3, dose 0.049 ppm; for mortality at 0.2 ppm: Trial 3, dose 0.20 ppm; for mortality at 0.78 ppm: Trial 3, dose 0.78 ppm; for mortality at 3.125 ppm: Trial 3, dose 3.125 ppm; for mortality at 12.5 ppm: Trial 3, dose 12.5 ppm; for mortality at 50 ppm: Trial 3, dose 50 ppm
Procedure: Ctenocephalides felis (Avista Pharma, Inc., RTP, NC), 1-7days post hatch, held in an environmental chamber at 24° C., 85% humidity.
For flea ingestion tests, serial dilutions of the compound stock were performed using DMSO to achieve the desired range for EC50 and EC90 determination. An aliquot of each compound dilution was added to organic bovine blood with a final DMSO concentration of 0.5% and placed in an artificial feeding container.
Compounds tested were C1 racemate, the C1 (R) enantiomer, and the C1 (S) enantiomer. For Trial 3, the C1 (R) enantiomer and the C1 (S) enantiomer were further chiral purified to achieve >99% purity.
For both contact and ingestion assays, ten newly emerged unfed adult fleas, 0-7 days old Ctenocephalides felis, from a laboratory colony, were aspirated into each vial or cage. The test vials for contact assays were held in an environmental chamber at 24° C., 80% humidity with light/dark cycles (12 hours each). The cages for flea ingestion assays were held in a temperature-controlled artificial feeding apparatus to allow continual access to organic bovine blood containing the desired concentration of compound. Fresh aliquots of compound-spiked bovine blood were provided daily for the duration of the study.
Fleas were evaluated for percent mortality at various time points between 2 hours and 48 hours post infestation. Fleas showing normal movement and/or jumping ability were considered viable and those showing no movement after tapping the vials were scored as dead.

[1] = tested on: Ctenocephalides felis (flea), Ixodidae (tick), and Aedes aegypti (mosquito); assay: Bio-profiling of C1 racemate and enantiomers, overall conclusions of contact and ingestion assays
Text: 1-[6-[5-(3,5-dichloro-4-fluoro-phenyl)-5-(trifluoromethyl)-4H-isothiazol-3-yl]spiro[1H-isobenzofuran-3,3′-azetidine]-1′-yl]-3,3,3-trifluoro-propan-1-one (referred to herein as C1 racemate) is an isothiazoline compound consisting of two isomers: (R)-1-[6-[5-(3,5-dichloro-4-fluoro-phenyl)-5-(trifluoromethyl)-4H-isothiazol-3-yl]spiro[1H-isobenzofuran-3,3′-azetidine]-1′-yl]-3,3,3-trifluoro-propan-1-one (referred herein as C1 (R) enantiomer) and (S)-1-[6-[5-(3,5-dichloro-4-fluoro-phenyl)-5-(trifluoromethyl)-4H-isothiazol-3-yl]spiro[1H-isobenzofuran-3,3′-azetidine]-1′-yl]-3,3,3-trifluoro-propan-1-one (referred to herein as C1 (S) enantiomer). The racemic compound and the two enantiomers were tested against adult stages of Ctenocephalides felis (flea) Ixodidae (tick), and Aedes aegypti (mosquito). The compounds were solubilized in DMSO or an acetone/triton solution and dose response curves were generated for the individual compounds.
For evaluation of contact activity, coated-substrate (flea) and coated-vial (tick and mosquito) assay procedures were used. For evaluation of flea ingestion activity, an artificial feeding assay procedure was used. Insecticidal activity was evaluated at various time-points for each assay. Dose response curves were generated in duplicate on three independent test occasions (Trial 1-Trial 3) and EC50 and EC90 values were calculated.
Therefore, mortality correction was not performed in the assays. Calculation of EC50 and EC90 values was performed using XLfit. Both EC50 and EC90 values were calculated using the average of the two replicates for each Trial.
The C1 (R) enantiomer, C1 (S) enantiomer, and the C1 racemate were successfully evaluated against flea, tick, and mosquito contact and ingestion in vitro screening assays.

O=C(CC(F)(F)F)N1CC2(C1)OCc1cc(C3=NS[C@](c4cc(Cl)c(F)c(Cl)c4)(C(F)(F)F)C3)ccc12 [C1 (R) enantiomer, (R)-1-[6-[5-(3,5-dichloro-4-fluoro-phenyl)-5-(trifluoromethyl)-4H-isothiazol-3-yl]spiro[1H-isobenzofuran-3,3′-azetidine]-1′-yl]-3,3,3-trifluoro-propan-1-one] gave a mortality at 0.003 ppm (Ctenocephalides felis; 6 h, Rep1) of 0%, a mortality at 0.003 ppm (Ctenocephalides felis; 6 h, Rep2) of 0% and a mortality at 0.012 ppm (Ctenocephalides felis; 6 h, Rep1) of 0%. It also gave a mortality at 0.012 ppm (Ctenocephalides felis; 6 h, Rep2) of 0%, a mortality at 0.049 ppm (Ctenocephalides felis; 6 h, Rep1) of 0% and a mortality at 0.049 ppm (Ctenocephalides felis; 6 h, Rep2) of 0%. For the same compound, the mortality at 0.2 ppm (Ctenocephalides felis; 6 h, Rep1) was 0%, the mortality at 0.2 ppm (Ctenocephalides felis; 6 h, Rep2) was 0% and the mortality at 0.78 ppm (Ctenocephalides felis; 6 h, Rep1) was 0%. For the same compound, the mortality at 0.78 ppm (Ctenocephalides felis; 6 h, Rep2) was 0%, the mortality at 3.125 ppm (Ctenocephalides felis; 6 h, Rep1) was 0% and the mortality at 3.125 ppm (Ctenocephalides felis; 6 h, Rep2) was 20%. For the same compound, the mortality at 12.5 ppm (Ctenocephalides felis; 6 h, Rep1) was 80%, the mortality at 12.5 ppm (Ctenocephalides felis; 6 h, Rep2) was 40% and the mortality at 50 ppm (Ctenocephalides felis; 6 h, Rep1) was 100%. It also gave a mortality at 50 ppm (Ctenocephalides felis; 6 h, Rep2) of 100%, a mortality at 0.003 ppm (Ctenocephalides felis; 24 h, Rep1) of 0% and a mortality at 0.003 ppm (Ctenocephalides felis; 24 h, Rep2) of 0%. For the same compound, the mortality at 0.012 ppm (Ctenocephalides felis; 24 h, Rep1) was 0%, the mortality at 0.012 ppm (Ctenocephalides felis; 24 h, Rep2) was 0% and the mortality at 0.049 ppm (Ctenocephalides felis; 24 h, Rep1) was 0%. The mortality at 0.049 ppm (Ctenocephalides felis; 24 h, Rep2) was 0%, the mortality at 0.2 ppm (Ctenocephalides felis; 24 h, Rep1) was 0% and the mortality at 0.2 ppm (Ctenocephalides felis; 24 h, Rep2) was 0%. The mortality at 0.78 ppm (Ctenocephalides felis; 24 h, Rep1) was 0%, the mortality at 0.78 ppm (Ctenocephalides felis; 24 h, Rep2) was 0% and the mortality at 3.125 ppm (Ctenocephalides felis; 24 h, Rep1) was 0%. It also gave a mortality at 3.125 ppm (Ctenocephalides felis; 24 h, Rep2) of 0%, a mortality at 12.5 ppm (Ctenocephalides felis; 24 h, Rep1) of 80% and a mortality at 12.5 ppm (Ctenocephalides felis; 24 h, Rep2) of 40%. For the same compound, the mortality at 50 ppm (Ctenocephalides felis; 24 h, Rep1) was 100%, the mortality at 50 ppm (Ctenocephalides felis; 24 h, Rep2) was 100% and the mortality at 0.003 ppm (Ctenocephalides felis; 48 h, Rep1) was 0%. It also gave a mortality at 0.003 ppm (Ctenocephalides felis; 48 h, Rep2) of 0%, a mortality at 0.012 ppm (Ctenocephalides felis; 48 h, Rep1) of 0% and a mortality at 0.012 ppm (Ctenocephalides felis; 48 h, Rep2) of 0%. For the same compound, the mortality at 0.049 ppm (Ctenocephalides felis; 48 h, Rep1) was 0%, the mortality at 0.049 ppm (Ctenocephalides felis; 48 h, Rep2) was 0% and the mortality at 0.2 ppm (Ctenocephalides felis; 48 h, Rep1) was 0%. The mortality at 0.2 ppm (Ctenocephalides felis; 48 h, Rep2) was 0%, the mortality at 0.78 ppm (Ctenocephalides felis; 48 h, Rep1) was 0% and the mortality at 0.78 ppm (Ctenocephalides felis; 48 h, Rep2) was 0%. It also gave a mortality at 3.125 ppm (Ctenocephalides felis; 48 h, Rep1) of 0%, a mortality at 3.125 ppm (Ctenocephalides felis; 48 h, Rep2) of 0% and a mortality at 12.5 ppm (Ctenocephalides felis; 48 h, Rep1) of 90%. For the same compound, the mortality at 12.5 ppm (Ctenocephalides felis; 48 h, Rep2) was 60%, the mortality at 50 ppm (Ctenocephalides felis; 48 h, Rep1) was 100% and the mortality at 50 ppm (Ctenocephalides felis; 48 h, Rep2) was 100%.

O=C(CC(F)(F)F)N1CC2(C1)OCc1cc(C3=NS[C@@](c4cc(Cl)c(F)c(Cl)c4)(C(F)(F)F)C3)ccc12 [C1 (S) enantiomer, (S)-1-[6-[5-(3,5-dichloro-4-fluoro-phenyl)-5-(trifluoromethyl)-4H-isothiazol-3-yl]spiro[1H-isobenzofuran-3,3′-azetidine]-1′-yl]-3,3,3-trifluoro-propan-1-one] was tested, and the mortality at 0.003 ppm (Ctenocephalides felis; 6 h, Rep1) was 0%, the mortality at 0.003 ppm (Ctenocephalides felis; 6 h, Rep2) was 0% and the mortality at 0.012 ppm (Ctenocephalides felis; 6 h, Rep1) was 0%. The mortality at 0.012 ppm (Ctenocephalides felis; 6 h, Rep2) was 0%, the mortality at 0.049 ppm (Ctenocephalides felis; 6 h, Rep1) was 0% and the mortality at 0.049 ppm (Ctenocephalides felis; 6 h, Rep2) was 0%. The mortality at 0.2 ppm (Ctenocephalides felis; 6 h, Rep1) was 10%, the mortality at 0.2 ppm (Ctenocephalides felis; 6 h, Rep2) was 20% and the mortality at 0.78 ppm (Ctenocephalides felis; 6 h, Rep1) was 80%. The mortality at 0.78 ppm (Ctenocephalides felis; 6 h, Rep2) was 70%, the mortality at 3.125 ppm (Ctenocephalides felis; 6 h, Rep1) was 100% and the mortality at 3.125 ppm (Ctenocephalides felis; 6 h, Rep2) was 60%. The mortality at 12.5 ppm (Ctenocephalides felis; 6 h, Rep1) was 100%, the mortality at 12.5 ppm (Ctenocephalides felis; 6 h, Rep2) was 100% and the mortality at 50 ppm (Ctenocephalides felis; 6 h, Rep1) was 100%. For the same compound, the mortality at 50 ppm (Ctenocephalides felis; 6 h, Rep2) was 100%, the mortality at 0.003 ppm (Ctenocephalides felis; 24 h, Rep1) was 0% and the mortality at 0.003 ppm (Ctenocephalides felis; 24 h, Rep2) was 0%. The mortality at 0.012 ppm (Ctenocephalides felis; 24 h, Rep1) was 0%, the mortality at 0.012 ppm (Ctenocephalides felis; 24 h, Rep2) was 0% and the mortality at 0.049 ppm (Ctenocephalides felis; 24 h, Rep1) was 20%. It also gave a mortality at 0.049 ppm (Ctenocephalides felis; 24 h, Rep2) of 10%, a mortality at 0.2 ppm (Ctenocephalides felis; 24 h, Rep1) of 10% and a mortality at 0.2 ppm (Ctenocephalides felis; 24 h, Rep2) of 50%. For the same compound, the mortality at 0.78 ppm (Ctenocephalides felis; 24 h, Rep1) was 100%, the mortality at 0.78 ppm (Ctenocephalides felis; 24 h, Rep2) was 90% and the mortality at 3.125 ppm (Ctenocephalides felis; 24 h, Rep1) was 100%. It also gave a mortality at 3.125 ppm (Ctenocephalides felis; 24 h, Rep2) of 80%, a mortality at 12.5 ppm (Ctenocephalides felis; 24 h, Rep1) of 100% and a mortality at 12.5 ppm (Ctenocephalides felis; 24 h, Rep2) of 100%. The mortality at 50 ppm (Ctenocephalides felis; 24 h, Rep1) was 100%, the mortality at 50 ppm (Ctenocephalides felis; 24 h, Rep2) was 100% and the mortality at 0.003 ppm (Ctenocephalides felis; 48 h, Rep1) was 0%. The mortality at 0.003 ppm (Ctenocephalides felis; 48 h, Rep2) was 0%, the mortality at 0.012 ppm (Ctenocephalides felis; 48 h, Rep1) was 0% and the mortality at 0.012 ppm (Ctenocephalides felis; 48 h, Rep2) was 0%. For the same compound, the mortality at 0.049 ppm (Ctenocephalides felis; 48 h, Rep1) was 20%, the mortality at 0.049 ppm (Ctenocephalides felis; 48 h, Rep2) was 20% and the mortality at 0.2 ppm (Ctenocephalides felis; 48 h, Rep1) was 30%. For the same compound, the mortality at 0.2 ppm (Ctenocephalides felis; 48 h, Rep2) was 70%, the mortality at 0.78 ppm (Ctenocephalides felis; 48 h, Rep1) was 100% and the mortality at 0.78 ppm (Ctenocephalides felis; 48 h, Rep2) was 90%. It also gave a mortality at 3.125 ppm (Ctenocephalides felis; 48 h, Rep1) of 100%, a mortality at 3.125 ppm (Ctenocephalides felis; 48 h, Rep2) of 100% and a mortality at 12.5 ppm (Ctenocephalides felis; 48 h, Rep1) of 100%. The mortality at 12.5 ppm (Ctenocephalides felis; 48 h, Rep2) was 100%, the mortality at 50 ppm (Ctenocephalides felis; 48 h, Rep1) was 100% and the mortality at 50 ppm (Ctenocephalides felis; 48 h, Rep2) was 100%. For the same compound, the “potency against ticks” value ([1]; adult ticks, contact assays) was “excellent potency against ticks” and the “which enantiomer carries the biological activity of the C1 racemate” value ([1]; flea, tick and mosquito contact and ingestion assays, Trials 1-3) was “primarily be associated with the C1 (S) enantiomer”.
